Read-outs that look alike come from different tables or passages of the source.
Tests used:
human mGluR2 receptor = biological target: T1, human mGluR2 receptor (Homo sapiens, UniProt Q14416); assay: [35S]GTPγS binding assay (PAM); assay type: biochemical; details: in presence of glutamate at predetermined EC20; membranes from CHO cells transfected with human mGluR2; read-out: GTPγS -hR2 PAM pEC50 (converted)
T1 construct: expressed in transfected cells; host or cells: CHO cells (membranes)
Description: [^35S]GTPγS binding assay
The [^35S]GTPγS binding assay is a functional membrane-based assay used to study G-protein coupled receptor (GPCR) function whereby incorporation of a non-hydrolysable form of GTP, [^35S]GTPγS (guanosine 5′-triphosphate, labelled with […] ^35S), is measured.
CHO-cells were cultured to pre-confluence and stimulated with 5 mM butyrate for 24 h, prior to washing in PBS, and then collected by scraping in homogenisation buffer (50 mM Tris-HCl buffer, pH 7.4, 4° C.). Cell lysates were homogenized briefly using an ultra-turrax homogenizer. The homogenate was centrifuged at 16,000 RPM (Sorvall RC-5C plus rotor SS-34) for 10 minutes and the supernatant discarded. The pellet was resuspended in 5 mM Tris-HCl, pH 7.4 and centrifuged again (18,000 RPM, 20 min, 4° C.). The final pellet was resuspended in 50 mM Tris-HCl, pH 7.4 and stored at −80° C. in appropriate aliquots before use. Protein concentration was determined by the Bradford method (Bio-Rad, USA) with bovine serum albumin as standard.
Measurement of mGluR2 positive allosteric modulatory activity of test compounds was performed as follows. Test compounds and glutamate were diluted in assay buffer containing 10 mM HEPES acid, 10 mM HEPES salt, pH 7.4, 100 mM NaCl, 3 mM MgCl2 and 10 μM GDP. Human mGlu2 receptor-containing membranes were thawed on ice and diluted in assay buffer supplemented with 14 μg/ml saponin. Membranes were pre-incubated with compound alone or together with a predefined (˜EC20) concentration of glutamate (PAM assay) for 30 min at 30° C. After addition of [^35S]GTPγS (f.c. 0.1 nM) microplates were shaken briefly and further incubated to allow [^35S]GTPγS incorporation on activation (30 minutes, 30° C.). Final assay mixtures contained 7 μg of membrane protein in 10 mM HEPES acid, 10 mM HEPES salt, pH 7.4, 100 mM NaCl, 3 mM MgCl2, 10 μM GDP and 10 μg/ml saponin. Total reaction volume was […] Reactions were terminated by rapid filtration through Unifilter-96 GF/B filter plates (Packard, Meriden, Conn.) using a 96-well Packard filtermate harvester. Filters were washed 6 times with ice-cold 10 mM NaH2PO4/10 mM Na2HPO4, pH 7.4. Filters were then air-dried, and 40 μl of liquid scintillation cocktail (Microscint-O) was added to each well. Membrane-bound radioactivity was counted in a Microplate Scintillation and Luminescence Counter from Packard.
obtained in the presence of EC20 of mGluR2 agonist glutamate to determine positive allosteric modulation (PAM)—were generated using the Lexis software interface (developed at J&J). Data were calculated as % of the control glutamate response, defined as the maximal response that is generated upon addition of glutamate alone. Sigmoid concentration-response curves plotting these percentages versus the log concentration of the test compound were analyzed using non-linear regression analysis. The concentration producing half-maximal effect is then calculated as EC50.
All compounds were tested in presence of mGluR2 agonist, glutamate at a predetermined EC20 concentration, to determine positive allosteric modulation (GTPγS-PAM). pEC50 values were calculated from a concentration-response experiment of at least 10 concentrations.

male NMRI mice [1] = assay: Phencyclidine (PCP)-induced hyperlocomotion in mice; assay type: in vivo; details: Mus musculus; mice; PCP 5 mg/kg s.c.; criterion total distance <5500 counts; not marked as oral; read-out: ED50 PCP-Inh.
Description: (§1) On the day of experiments, the mice were brought into the procedural room. They were housed individually and allowed to acclimate for at least a half hour prior to testing. Although the studies were conducted during the light cycle (from 8:00 to 16:00 h), the procedure room was only sparsely lit (3 to 30 LUX) to provide better contrast for the video tracking. Local lighting was used for the injection procedures. During each trial, an individual mouse was placed in an open field arena (grey PVC cylinder with a height of 40 cm and a diameter of 22.5 cm). Each arena was placed on an infrared LED (8×8 LEDs)-lit box (white PVC squared box; 40×40 cm^2; height 12.5 cm). Each mouse was placed in the center of the arena and allowed to explore freely for 30 min. After each trial, the arena was cleaned with a wet and subsequently with a dry cleaning cloth. An infrared sensitive tube camera and a white light source (in arena: 4-7 LUX) were mounted to the ceiling above the observation chamber to record and input activity to a computer. Animal behavior was recorded and analyzed using the Noldus Ethovision XT Video Tracking System (Version 3.1; Noldus, Wageningen, The Netherlands). The total distance traveled (cm) was calculated. Data were then exported to data management systems for further analysis and reporting.
Test compound or solvent was administered at a pre-defined time before measurement (standard: 30 min) to male NMRI mice that were challenged with phencyclidine (PCP; 5 mg/kg, s.c.) 30 min before measurement. Activity was measured for a period of 30 min.

male Wiga Wistar rats = assay: Conditioned avoidance response (CAR) test; assay type: in vivo; details: Rattus norvegicus, po, criterion median avoidance latency >8 s, read-out: ED50 CAR-Inh.
Text: The apparatus consisted of an inner box surrounded by an outer box. The inner box was composed of four walls of transparent, synthetic material (length×width×height: 30×30×30 cm), an open top, and a grid floor made of 15 pairs of iron bars (2 mm diameter; 6 mm inter-bar distance). Odd and even bars were connected with a source of alternative current (1.0 mA; Coulbourn Instruments Solid State Shocker/Distributor), which could be interrupted by a switch. The outer box was composed of the same material (length×width×height: 40×40×36 cm), also with an open top, with a distance of 5 cm between the inner and outer box on all sides. To decrease the amount of environmental stimuli, three walls of the outer box were made non-transparent. The front wall was left transparent to allow the necessary inspection of the animal during the test. The upper edge of the outer and inner box served as a target for the rats on which to jump with fore- and hind-paws, respectively.
From their arrival in the laboratory on the experimental day, male Wiga Wistar rats (230±30 g) were housed in individual cages provided with bedding material.
Latency to avoidance was recorded. The median avoidance response obtained over the three experimental sessions for each rat were used for further calculations.

Male mice (C57BL/6) = assay: Reversal of memantine-induced brain activation ([14C]2DG uptake) in mice; assay type: in vivo; details: for L.A.D. (lowest active dose) for significant (p<0.05) reduction of 2DG uptake in the hippocampus compared to memantine response: mice, s.c., memantine 20 mg/kg s.c.
Description: Reversal of Memantine-Induced Brain Activation in Mice NMDA receptor hypofunction is hypothesized to be involved in schizophrenia.
Autoradiographic assessment of radiolabeled [^14C]-2-deoxyglucose ([^14C]2DG) uptake is commonly used to investigate brain activation. In humans, cerebral blood flow is increased in specific brain regions after administration of a subanaesthetic dose of ketamine.
Male mice (C57BL/6, weight 24-28 g, fasted overnight; n=10 animals per group) were treated with vehicle or test compound (s.c.) in randomized order (t=0 min). Memantine (20 mg/kg, s.c.) was injected 30 min later (t=30 min). At t=45 min, [^14C]2DG (0.16 μCi/g) was administered intraperitoneally (i.p.), followed by a 45 min uptake period. Animals were decapitated (t=90 min), plasma glucose levels measured, the brain removed, rapidly frozen and stored at −20° C. until sectioned. Brain sections were exposed together to a precalibrated [^14C]standard on film, which was developed after four days of exposure. Local tissue [^14C]concentration (nCi/mg tissue equivalent—TEQ-) in each region of interest was determined.
Data was analyzed statistically using a two-way ANOVA analysis followed by post-hoc tests (memantine response versus reversal by the compound). The results are shown in table 5 below, expressed as lowest active dose (L.A.D.) required to exert a statistically significant (p<0.05) reduction of 2DG uptake in the hippocampus compared to memantine response.

male NMRI mice [2] = assay: d-Amphetamine-induced hyperlocomotion in mice; assay type: in vivo; details: Mus musculus, d-amphetamine 5 mg/kg s.c., compound administered orally, read-out: ED50 Amp.-Inh.
Description: as §1, with “An infrared sensitive tube camera and a white light source (in arena: 4-7 LUX) were mounted to the ceiling above the observation chamber to record and input activity to a computer.” left out, “Data were then exported to data management systems for further analysis and reporting.” left out
Test compound or solvent was administered at a pre-defined time before measurement (standard: 30 min) to male NMRI mice that were challenged with d-amphetamine (5 mg/kg, s.c.) 30 min before measurement. Activity was measured for a period of 30 min.

rats = assay: Sleep wake electroencephalography (SW-EEG) in rats; assay type: in vivo; details: 3 mg/kg, p.o.
Text: Sleep Wake Electroencephalography (SW-EEG) in Rats SW-EEG analyses are a highly sensitive read-out of a compound's central functional activity that may provide additional insight in the potential therapeutic application (i.e. via drug classification fingerprinting). […] Internal efforts have confirmed that this effect is mGlu2 receptor-mediated, i.e. is absent in mGlu2 KO mice. Sleep abnormalities are often associated with CNS disorders; as such, the potential use of mGlu2 modulators could also have benefit in the treatment of CNS disorders in which (REM) sleep aberrations are manifested. More specifically, the combination of a persistent reduction in REM occurrence and an increase in REM latency is one of the key features of the typical SW architecture fingerprint of most clinically active antidepressants.
We investigated the effects of oral administration of compounds according to the invention on SW organization in rats. The mGlu2/3 receptor agonist LY404039 was also evaluated to allow comparison.

T1 sequence (Q14416 19-872): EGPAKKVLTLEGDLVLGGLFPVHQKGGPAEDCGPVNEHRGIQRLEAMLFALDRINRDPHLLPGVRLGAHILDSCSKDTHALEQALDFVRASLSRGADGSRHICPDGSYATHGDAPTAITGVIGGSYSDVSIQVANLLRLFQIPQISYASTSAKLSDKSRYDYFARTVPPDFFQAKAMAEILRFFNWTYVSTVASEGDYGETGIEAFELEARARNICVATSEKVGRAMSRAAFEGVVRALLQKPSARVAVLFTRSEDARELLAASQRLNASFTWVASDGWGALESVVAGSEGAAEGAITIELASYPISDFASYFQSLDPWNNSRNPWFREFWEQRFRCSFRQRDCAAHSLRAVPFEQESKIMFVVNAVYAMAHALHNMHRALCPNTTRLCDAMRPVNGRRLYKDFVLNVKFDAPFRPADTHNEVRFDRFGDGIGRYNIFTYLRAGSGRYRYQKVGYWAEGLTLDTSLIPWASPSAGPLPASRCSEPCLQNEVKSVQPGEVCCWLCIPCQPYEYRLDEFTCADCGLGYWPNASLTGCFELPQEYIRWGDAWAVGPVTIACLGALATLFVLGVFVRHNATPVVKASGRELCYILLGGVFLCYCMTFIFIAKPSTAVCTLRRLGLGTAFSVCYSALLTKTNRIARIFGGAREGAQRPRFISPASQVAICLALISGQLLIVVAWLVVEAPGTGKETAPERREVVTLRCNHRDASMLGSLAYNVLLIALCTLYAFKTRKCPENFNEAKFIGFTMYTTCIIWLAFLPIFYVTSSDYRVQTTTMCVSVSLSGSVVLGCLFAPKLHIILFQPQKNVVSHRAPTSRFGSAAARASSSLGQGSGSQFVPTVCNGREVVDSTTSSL

Compound | EC50 (human mGluR2 receptor) | ED50 (male NMRI mice [1]) | ED50 (male Wiga Wistar rats; compound administered orally) | ED50 (male Wiga Wistar rats; not marked as oral) | L.A.D. (lowest active dose) for significant (p<0.05) reduction of 2DG uptake in the hippocampus compared to memantine response (Male mice (C57BL/6)) | melting point | ED50 (male NMRI mice [2]) | effect on memantine-induced brain glucose metabolism / 2DG uptake (in words) (Male mice (C57BL/6); mouse brain) | effect on REM sleep (in words) (rats)
Cc1cc(Oc2ccc(-c3ccn4c(CC(F)(F)F)nnc4c3Cl)cc2F)ccn1 [Co. No. 1, 7-[3-Fluoro-4-(2′-methyl-pyridin-4-yloxy)-phenyl]-8-chloro-3-(2,2,2-trifluoro-ethyl)-1,2,4-triazolo[4,3-a]pyridine] | 0.209 µM | 18.7 mg/kg | 21.4 mg/kg | 12.3 mg/kg | >10 mg/kg | 130.1 °C |  |  | 
Cc1cc(Oc2ccc(-c3ccn4c(CC5CC5)nnc4c3C(F)(F)F)cc2F)ccn1 [Co. No. 2, 7-[3-Fluoro-4-(2′-methyl-pyridin-4-yloxy)-phenyl]-8-trifluoromethyl-3-cyclopropylmethyl-1,2,4-triazolo[4,3-a]pyridine] | 0.0501 µM | 12.3 mg/kg | 21.4 mg/kg | 18.7 mg/kg | 10 mg/kg |  | 28.3 mg/kg |  | 
N[C@@]1(C(=O)O)CS(=O)(=O)[C@H]2[C@H](C(=O)O)[C@H]21 [LY404039, reference compound] |  |  |  |  |  |  |  | inhibited | affect REM sleep
